Usually IC50 stands for the point on the concentration scale where inhibition reaches its midpoint.

One assay deals with T1, COX-1 (Ovis aries, UniProt P05979).
T1 construct: purchased Cayman chemical, MI, USA
T1 sequence (P05979 25-600): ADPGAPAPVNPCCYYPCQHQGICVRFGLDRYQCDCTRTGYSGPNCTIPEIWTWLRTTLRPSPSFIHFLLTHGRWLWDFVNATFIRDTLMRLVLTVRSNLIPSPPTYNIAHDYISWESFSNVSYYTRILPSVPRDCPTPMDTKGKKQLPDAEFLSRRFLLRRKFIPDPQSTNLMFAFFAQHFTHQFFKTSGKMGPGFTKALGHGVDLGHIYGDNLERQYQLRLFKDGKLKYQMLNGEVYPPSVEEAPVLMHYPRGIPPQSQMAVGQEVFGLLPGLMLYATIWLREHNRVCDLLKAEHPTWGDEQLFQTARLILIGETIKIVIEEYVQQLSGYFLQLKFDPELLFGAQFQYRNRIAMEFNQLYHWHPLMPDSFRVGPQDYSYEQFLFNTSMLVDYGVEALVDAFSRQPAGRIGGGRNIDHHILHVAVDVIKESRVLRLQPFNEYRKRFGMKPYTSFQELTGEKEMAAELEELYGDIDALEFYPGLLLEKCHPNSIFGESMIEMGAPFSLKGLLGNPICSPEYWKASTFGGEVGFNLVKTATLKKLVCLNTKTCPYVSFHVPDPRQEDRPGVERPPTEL
Put plainly: biochemical. The conditions noted are these: ovine COX-1/COX-2 assay kit; mean of two determinations, deviation < 10% of the mean. As for the experimental part:
(§1) In-vitro cyclooxygenase (COX) inhibition assays
(§2) The assay was performed using an enzyme chemiluminescent kit (Cayman chemical, MI, USA) according to the previously reported method ([17]).

The target in the next assay is T2, COX-2 (Ovis aries, UniProt P79208).
T2 construct: purchased Cayman chemical, MI, USA
T2 sequence (P79208 17-603): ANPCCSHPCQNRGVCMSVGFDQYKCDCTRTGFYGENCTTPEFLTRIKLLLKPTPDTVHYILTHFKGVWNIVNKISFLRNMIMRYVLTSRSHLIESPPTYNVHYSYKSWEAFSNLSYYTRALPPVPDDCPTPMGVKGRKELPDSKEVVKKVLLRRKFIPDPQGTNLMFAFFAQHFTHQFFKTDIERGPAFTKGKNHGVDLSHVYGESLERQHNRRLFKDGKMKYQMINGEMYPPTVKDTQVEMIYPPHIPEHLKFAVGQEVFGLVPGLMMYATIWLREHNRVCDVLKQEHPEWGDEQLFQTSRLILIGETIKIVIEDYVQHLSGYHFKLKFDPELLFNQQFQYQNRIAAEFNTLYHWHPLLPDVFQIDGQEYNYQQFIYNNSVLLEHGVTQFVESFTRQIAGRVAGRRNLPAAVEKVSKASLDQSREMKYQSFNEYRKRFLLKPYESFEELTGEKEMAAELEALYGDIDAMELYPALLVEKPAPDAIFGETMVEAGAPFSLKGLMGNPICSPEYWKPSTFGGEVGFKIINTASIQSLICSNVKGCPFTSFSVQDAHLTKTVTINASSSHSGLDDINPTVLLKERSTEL
Put plainly: biochemical. Conditions: for IC50: ovine COX-1/COX-2 assay kit, mean of two determinations, deviation < 10% of the mean. The procedure: as §1, §2

For the molecule `[N-]=[N+]=Nc1ccc(C(=O)NC(Cc2ccccc2)C(=O)O)cc1` (centres unmarked) [Compound 1d, p-azidobenzoyl-phenylalanine], the IC50 was 55.5 µM against COX-1 and above 100 µM at COX-2.
In turn, `CS(=O)(=O)c1ccc(C(=O)NC(Cc2c[nH]c3ccccc23)C(=O)O)cc1` (stereo not drawn) [Compound 4c, p-MeSO2Bz -Trp] yielded an IC50 against COX-1 of 16.6 µM. In addition, on COX-2, the “S.I. In-vitro COX-2 selectivity index (COX-1 IC50/COX-2 IC50)” value is listed as 184.4 and 0.09 µM corresponded to half-maximal inhibition (IC50).
Consider `[N-]=[N+]=Nc1ccc(C(=O)NC(Cc2c[nH]cn2)C(=O)O)cc1` (centres unmarked) [Compound 2d, p-N3Bz -His], for which the IC50 on COX-1 is 28.1 µM. Besides, on COX-2, the “S.I. In-vitro COX-2 selectivity index (COX-1 IC50/COX-2 IC50)” value is 351.2 and the IC50 was found to be 0.08 µM.
On to `[N-]=[N+]=Nc1ccc(C(=O)NC(Cc2ccc(O)cc2)C(=O)O)cc1` (centres unmarked) [Compound 3d, p-N3Bz -Tyr], for which the IC50 at COX-1 amounted to 20.9 µM. On COX-2, the “S.I. In-vitro COX-2 selectivity index (COX-1 IC50/COX-2 IC50)” value is given as 2.1 and the concentration for half-maximal inhibition (IC50) is 10.1 µM.
Consider `CS(=O)(=O)c1ccc(C(=O)NC(Cc2ccccc2)C(=O)O)cc1` (centres unmarked) [Compound 1c, p-(methylsulfonyl)benzoyl-phenylalanine], for which the IC50 against COX-1 and against COX-2 was above 100 µM throughout.
With `[N-]=[N+]=Nc1ccc(C(=O)NC(Cc2c[nH]c3ccccc23)C(=O)O)cc1` (centres unmarked) [Compound 4d, p-N3Bz -Trp], the IC50 against COX-1 and at COX-2 was above 100 µM in each case.
With `CS(=O)(=O)c1ccc(C(=O)NC(Cc2ccc(O)cc2)C(=O)O)cc1` (stereo not drawn) [Compound 3c, p-MeSO 2 Bz -Tyr], the IC50 against COX-1 was 25.2 µM. At COX-2, the “S.I. In-vitro COX-2 selectivity index (COX-1 IC50/COX-2 IC50)” value amounted to 109.6 and the IC50 is 0.23 µM.
For `CS(=O)(=O)c1ccc(C(=O)NC(Cc2cnc[nH]2)C(=O)O)cc1` (stereo not drawn) [Compound 2c, p-MeSO2Bz -His], the IC50 at COX-1 and at COX-2 was above 100 µM each time.

Source of the values: article PMC5937080, “Design, Synthesis and Biological Evaluation of Novel Peptide-Like Analogues as Selective COX-2 Inhibitors” (Iranian Journal of Pharmaceutical Research : IJPR, 2018).
